We go through five compounds from patent publication US9675579B2, “Tetrahydrocannabivarin for use in the treatment of nausea and vomiting” (GW Pharma Limited, priority 2013, dated 2017).

One data set deals with rodent. The conditions noted are these: cited from earlier work; for suppression of toxin-induced conditioned gaping: rodent model of conditioned nausea.
The test system of data set [1] is Sprague-Dawley rats. Briefly: Conditioned gaping to saccharin paired with the compound (Example 1). Here is the method: Naïve male Sprague-Dawley rats, obtained from Charles River Laboratories (St Constant, Quebec) were single-housed in shoebox cages in the colony room at an ambient temperature of 21° C. with a 12/12 light/dark schedule (lights off at 8 AM) and maintained on ad-libitum food and water.
Drugs and Materials: All cannabinoid compounds were prepared in a vehicle (VEH) of ethanol/Cremophor (Sigma)/saline (SAL; 1:1:18) and administered intraperitonally (i.p.).
SR was prepared at 2.5, 10 and 20 mg/kg and administered at a volume of 2 ml/kg. CBDV was prepared at 2.5 and 10 mg/kg and administered at a volume of 2 ml/kg. A high dose of CBDV was prepared at 200 mg/kg and administered at a volume 10 ml/kg. THCV was prepared at 2.5, 10 and 20 mg/kg and administered at a volume of 2 ml/kg.
Procedures: Rats were implanted with intraoral cannulae under isofluorane anesthesia. […]
Seventy two hours after the conditioning trial, the rats were returned to the TR chamber and intraorally infused with 0.1% saccharin solution and their orofacial reactions were video recorded with the feed from the video camera fire-wired into a computer. The video tapes are later scored (at 1/2 speed) by a trained observer blind to the experimental conditions for the behaviour of gaping (large openings of the mouth and jaw, with lower incisors exposed).

For data set [2], the system named is Sprague-Dawley rats. As to the kind of experiment: Potentiation or attenuation of LiCl-induced conditioned gaping (Example 2). In kind it is in vivo, rat. The settings on record: for LiCl-induced conditioned gaping reactions relative to group VEH: rats, drug-free test 72 h later. Here is the method:
Animals and Drugs and Materials were as described in Example 1 above.
Following recovery from intraoral cannulation surgery, the rats received the adaptation trial to the TR test as described in Example 1 above. On the day of conditioning (saccharin palatability test), the rats were injected with VEH (n=10), 2.5 mg/kg SR (n=10), 2.5 mg/kg THC (n=6), 10 mg/kg THC (n=7), 2.5 mg/kg THCV (n=10) or 10 mg/kg THCV (n=6), 2.5 mg/kg CBDV (n=10) or 200 mg/kg CBDV (n=13). Thirty min later, each rat was intraorally infused with 0.1% saccharin solution while their orofacial responses were video recorded from the mirror beneath the chamber. Immediately following the 2 min intraoral infusion of saccharin, the rats were injected with 20 ml/kg or 0.15 M LiCl.
Seventy-two hours later, the rats received a drug-free test trial, during which they received a 2 min intraoral infusion of 0.1% saccharin solution and the frequency of gaping was measured. The videotapes were later scored (at 1/2 speed) by an observer blind to the experimental conditions for the hedonic reaction of tongue protrusions (at conditioning and testing). As well, to determine other non-specific effects of the drug during conditioning, the conditioning tapes were scored for bouts of active locomotion (forward movement of paws on the floor of the cage).

The target of data set [3] is CB1 receptor (Homo sapiens, UniProt P21554). The settings on record: in vitro, Thomas et al., 2005; cited from earlier work.
Chain of CB1 receptor (Homo sapiens, UniProt P21554) (P21554 whole entry): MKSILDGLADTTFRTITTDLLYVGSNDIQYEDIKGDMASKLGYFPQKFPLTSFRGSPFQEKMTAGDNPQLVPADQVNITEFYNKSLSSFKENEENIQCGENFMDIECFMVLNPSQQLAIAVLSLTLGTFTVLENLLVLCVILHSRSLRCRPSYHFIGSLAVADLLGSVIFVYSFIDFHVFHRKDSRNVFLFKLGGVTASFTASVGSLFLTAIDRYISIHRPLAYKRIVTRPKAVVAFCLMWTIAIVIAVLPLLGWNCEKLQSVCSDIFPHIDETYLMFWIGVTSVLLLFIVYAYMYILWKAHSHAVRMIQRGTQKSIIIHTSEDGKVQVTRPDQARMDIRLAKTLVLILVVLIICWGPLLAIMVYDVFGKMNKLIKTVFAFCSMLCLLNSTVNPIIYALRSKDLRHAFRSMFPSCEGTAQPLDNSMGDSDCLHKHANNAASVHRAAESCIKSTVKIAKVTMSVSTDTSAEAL
In data set [4] the target is CB1 receptor (Mus musculus, UniProt P47746). The settings on record: low doses (<3 mg/kg), Pertwee et al., 2007; cited from earlier work.
Chain of CB1 receptor (Mus musculus, UniProt P47746) (P47746 whole entry): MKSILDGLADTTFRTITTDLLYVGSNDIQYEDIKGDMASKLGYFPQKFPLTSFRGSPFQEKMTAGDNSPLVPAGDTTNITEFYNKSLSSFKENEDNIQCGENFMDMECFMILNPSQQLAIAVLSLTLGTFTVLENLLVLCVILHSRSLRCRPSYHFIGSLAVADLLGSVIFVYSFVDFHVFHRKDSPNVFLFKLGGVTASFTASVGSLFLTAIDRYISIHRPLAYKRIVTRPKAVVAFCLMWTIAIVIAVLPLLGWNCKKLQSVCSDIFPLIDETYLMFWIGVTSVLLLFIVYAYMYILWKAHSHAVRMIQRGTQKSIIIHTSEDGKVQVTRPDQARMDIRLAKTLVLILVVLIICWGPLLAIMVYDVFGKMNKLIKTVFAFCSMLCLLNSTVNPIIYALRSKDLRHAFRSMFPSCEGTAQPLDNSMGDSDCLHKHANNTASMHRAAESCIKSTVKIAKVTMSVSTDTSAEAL
In the next data set the target is CB2 receptor (Homo sapiens, UniProt P34972). The settings on record: in vitro, Thomas et al., 2005; cited from earlier work.
Chain of CB2 receptor (P34972 whole entry): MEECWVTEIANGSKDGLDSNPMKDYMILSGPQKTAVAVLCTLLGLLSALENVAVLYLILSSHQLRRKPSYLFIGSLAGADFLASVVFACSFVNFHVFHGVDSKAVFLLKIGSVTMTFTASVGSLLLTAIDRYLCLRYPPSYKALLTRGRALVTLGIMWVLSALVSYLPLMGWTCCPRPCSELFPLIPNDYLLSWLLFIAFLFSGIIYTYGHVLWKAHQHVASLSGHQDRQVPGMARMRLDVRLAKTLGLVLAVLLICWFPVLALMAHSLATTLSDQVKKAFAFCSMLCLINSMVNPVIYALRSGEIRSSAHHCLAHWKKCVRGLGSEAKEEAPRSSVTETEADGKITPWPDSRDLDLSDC
The mark [5] stands for this setting: 2.5 mg/kg i.p. 30 min before saccharin-LiCl pairing.

Entries after “also recorded” stand apart in the source; their conditions may differ. Where two headings read alike, the source gives them in different places.

On to `C=C(C)[C@@H]1CCC(C)=C[C@H]1c1c(O)cc(CCCCC)cc1O` [CBD, cannabidiol], for which the “suppression of toxin-induced conditioned gaping” value in the data set with rodent (5 mg/kg) was “suppress toxin-induced conditioned gaping”.

On to `Cc1c(C(=O)NN2CCCCC2)nn(-c2ccc(Cl)cc2Cl)c1-c1ccc(Cl)cc1` [SR, rimonabant], for which, in the data set on rodent (2.5 mg/kg, sub-threshold for nausea on its own, pre-treatment prior to saccharin-LiCl pairing, drug-free test 72 hours after conditioning), the “potentiation of the nausea produced by LiCl (potentiated gaping)” value is “potentiated the nausea produced by LiCl”. Besides, in the data set on Sprague-Dawley rats [1] (rat, in vivo), the “conditioned gaping, 20 mg/kg compared with 10 mg/kg” value is listed as “marginally more gaping”. Further, the “LiCl-induced conditioned gaping reactions relative to group VEH” value with Sprague-Dawley rats [2] (setting [5]) is listed as “potentiated LiCl-induced gaping reactions”.

With `CCCCCc1cc(O)c2c(c1)OC(C)(C)[C@@H]1CCC(C)=C[C@@H]21` [THC, tetrahydrocannabinol], the “suppression of toxin-induced conditioned gaping” value in the data set on rodent (0.5 mg/kg) was “suppress toxin-induced conditioned gaping”. Further, the “LiCl-induced conditioned gaping reactions relative to group VEH” value in the data set on Sprague-Dawley rats [2] (setting [5]) and with Sprague-Dawley rats [2] (10 mg/kg i.p. 30 min before saccharin-LiCl pairing) was “significantly attenuated the LiCl-induced gaping reactions” each time.

In the case of `C=C(C)[C@@H]1CCC(C)=C[C@H]1c1c(O)cc(CCC)cc1O` [CBDV], the “LiCl-induced conditioned gaping reactions relative to group VEH” value in the data set with Sprague-Dawley rats [2] (setting [5]) is “marginally attenuated LiCl-induced gaping reactions”; with Sprague-Dawley rats [2] (200 mg/kg i.p. 30 min before saccharin-LiCl pairing, 200 mg/kg) it was “significantly attenuated the LiCl-induced gaping reactions; also recorded: statistically significant anti-nausea effect”.

On to `CCCc1cc(O)c2c(c1)OC(C)(C)[C@@H]1CCC(C)=C[C@@H]21` [THCV, tetrahydrocannabivarin], for which, on CB1 receptor [3], the “action at the CB1 receptor” value was “acts as a CB1 and CB2 receptor antagonist”. The “conditioned gaping reactions (nausea-like reactions) elicited by 0.1% saccharin previously paired with the compound” value with Sprague-Dawley rats [1] (rats, i.p., all doses tested (SR 10, 20; AM251 10; THCV 10, 20; CBDV 10, 200 mg/kg), drug-free test 72 h after conditioning, vs VEH and other groups) is “did not produce apparent inverse agonist properties; also recorded: neither CBDV (10 or 200 mg/kg) nor THCV (10 or 20 mg/kg) produced the nausea-like profile of conditioned gaping”. Further, in the data set on Sprague-Dawley rats [2] (calculated from the rat dose, Km rat 6, Km human 37), the “human equivalent dose of the dose that blocked LiCl-induced nausea” value was “greater than 0.4 mg/kg”. For the same compound, the “dose that blocked LiCl-induced nausea” value in the data set with Sprague-Dawley rats [2] (in rats) is “greater than 2.5 mg/kg”. Moreover, the “LiCl-induced conditioned gaping reactions relative to group VEH” value in the data set on Sprague-Dawley rats [2] (setting [5]) was “marginally attenuated LiCl-induced gaping reactions”; in the data set on Sprague-Dawley rats [2] (10 mg/kg i.p. 30 min before saccharin-LiCl pairing, 10 mg/kg), “no gaping reactions; also recorded: eliminated LiCl-induced nausea”. For the same compound, the “action at the CB1 receptor in vivo” value at CB1 receptor [4] is “act as a CB1 receptor antagonist”. On CB2 receptor, the “action at the CB2 receptor” value is “acts as a CB1 and CB2 receptor antagonist”.
